Twelve compounds from patent US10208074B2, “Pyrazole compounds and method for making and using the compounds” (Rigel Pharmaceuticals, Inc., priority 2015, dated 2019) can be followed below.

Structures can show the parent of a compound that is named as a salt. Where two headings read alike, the source gives them in different places.

The test system of one test is IL-23p19. Nature of the test: LPS induced IL23p19 in THP-1 cells (with IFNγ primed) assay. In kind it is cell-based, Human. The conditions noted are these: THP-1 cells, IFNγ primed, LPS 1 ug/mL, 18 hours, 10 pt, read-out: IL23-p19 ELISA, THP1-IFNy, LPS, 10 pt EC50. The source says:
LPS Induced IL23p19 in THP-1 Cells (with IFNγ Primed) Assay
THP-1 Cells (ATCC, Cat#TIB-202), Dimethyl Sulfoxide (DMSO) (Sigma-Aldrich, Cat#D2650), RPMI 1640 (Cellgro, Cat#10-040-CM), Fetal Bovine Serum (Sigma, Cat#F4135), Albumin From Bovine Serum (BSA) (Sigma-Aldrich, Cat#A7906), LPS (Serotype K-235, Sigma, Product Number L 2143), IFNγ (Peprotech, Cat#300-02) Capture antibody: Human IL-23p19 ELISA (e-Bioscience, Cat. #14-7238-85), Detection antibody: Primary Mouse Biotinylated anti-human IL-12(p40/p70) (e-Bioscience, Cat. #13-7129-85), Secondary HRP-conjugated Streptavidin (R&D Systems, Cat#DY998), 1×PBST Washing Buffer (PBS-Tween tablet) (VWR International, Cat#80058-558), ELISA Blocking Buffer (PBS with 1% BSA), ELISA Dilution Buffer (PBS with 1% BSA), 384 Well Flat-Bottom, MaxiSorp Black Immuno Plates (Thermo Scientific, Cat#12-565-346), 384 Well Flat-Bottom, White Tissue Culture Plates (Thermo Scientific, Cat#12-565-343), Super Signal ELISA Pico Chemiluminescent Substrate (Thermo Scientific, Cat#37070), Cell Titer Glo reagent (Promega, Cat#G7573), Positive control, IKK2VI inhibitor (Calbiochem, Cat#401483), AquaMax 4000 plate washer (Molecular Devices), Luminometer, Wallac Victor2 1420 Multilabel Counter.
On day 1, 50K/well THP-1 cells were seeded and primed with IFNγ (50 ng/mL) in 384-well plates for about 18 hours in RPMI media with 10% FBS. On day 2, the compound was serially diluted in DMSO from 5 mM in 3-fold dilutions, and then diluted 1:125 in RPMI media with 10% FBS. 50 μL/well 2× compound was added to 50 μL/well THP-1 cells (with IFNγ primed) in duplicate in 384 well tissue culture plates. The cells were pre-incubated with compound for 1 hour at 37° C., 5% CO2 before addition of 10 μL/well 11×LPS to give a final concentration of 1 ug/mL LPS. Day 3, after stimulation for 18 hours at 37° C., 5% CO2, the assay plate was centrifuged and 70 μL/well supernatant was harvested. IL-23p19 protein in 70 μL/well of supernatant was measured by sandwich ELISA, and 25 μl/well Cell Titer Glo reagent was added to the remaining cells to measure compound toxicity.
Maxisorp immuno ELISA plates were pre-coated with 25 μL/well of anti-IL-23p19 capture antibody (2.5 ug/mL) in PBS overnight at room temperature. After washing with 1× PBST, the plates were blocked using 100 μL/well of 1% BSA in PBS for 2 hours at room temperature. The plates were washed three times with 1×PBST and 70 μL/well supernatant were added. The plates were incubated at room temperature for 2 hours with shaking and washed three times with 1×PBST. 25 μL/well of biotin labeled anti-IL-12(p40/p70) detection antibody (100 ng/mL) in PBS with 1% BSA was added and the plates were incubated at room temperature for 2 hours with shaking. After washing three times with 1×PBST, 25 μL/well of streptavidin-HRP (1:200) in PBS with 1% BSA was added and the plates were incubated at room temperature for 20 minutes with shaking. The plates were washed three times with 1× PBST and 25 μL/well of Super Signal ELISA Pico Chemiluminescent Substrate were added. The plates were read with a luminometer, and the chemiluminescence values were entered into Athena (Rigel) for curve fitting, EC50 calculation, and database storage.

Another test relates to IL-23 (p19/p40). Nature of the test: IL23-p19 ELISA, Dendritic, LPS (compound screening using DC cells). The conditions noted are these: PBMC-derived DC cells, IFNγ primed, LPS 1 μg/ml, 18 hours, 10 pt, read-out: IL23-p19 ELISA, Dendritic, LPS, 10 pt, EC50. The format is cell-based, Human. The method, then:
Compound Screening Using DC Cells
Human PBMC cells (400 million) obtained from the vendor were transferred into a T-175 flask containing 15 ml RPMI media (10% FBS) and incubate for 2 hours at 37° C. After 2 hours, the media including floating cells was aspirated out carefully and 12 ml of fresh RPMI media (10% FBS) containing GMCSF (100 ng/ml) and IL4 (20 ng/ml) was added, and the flask was kept in a 37° C. incubator for 7 days.
After 3 days, fresh GMCSF (100 ng/ml) and IL4 (20 ng/ml) were added to the flask and the incubation continued. After 7 days, the fully differentiated cells were harvested by spinning down (1200 rpm/5 min) and aspirating the media. The cells were suspended in fresh RPMI media (10% FBS) containing 50 ng/ml IFNγ (1000 U/ml) and then plated (50K/well in 100 μl) onto a white clear bottom 96 well plate and left in a 37° C. incubator for 24 hours.
After 24 hours incubation, 100 μl of RPMI media was added containing 2× concentrated test compound per well to the above cell-culture media (final concentration becomes 1×) and the plates were pre-incubated for 1 hour at 37° C. before stimulating with LPS.
After 1 hour compound pre-incubation, 10 piper well of 20× concentrated LPS solution in RPMI media was added to give a final concentration of 1 μg/ml. The mixture was shaken and incubated the plates at 37° C. for an additional 18 hours.
155 μl of the supernatant was harvested from each well carefully (without the tip touching the bottom of the well) and to the remaining 50 μl/well of the cell culture plate was added 50 μl of Cell Titer Glo reagent. The mixture was incubated for 1-2 minutes on a shaker and the plate was read for luminescence intensity to determine the compound cytotoxicity. The cell culture supernatant collected above was used to carry out IL23 ELISA (65 μl -Supernatant) and IL10 ELISA (90 μl—Supernatant) as described below.
Human IL-23 (p19/p40) ELISA Protocol (e-Biosciences)
To 10.5 ml PBS add 50 μl of anti-IL23 (p19) was added capture antibody (2.5 μg/ml). The mixture was mixed well and 100 μl of the coating solution was added to each well of the 96 well white plates from Pierce. The wells were covered and incubated overnight at 4° C.
The anti-IL23 (p19)-antibody-coated plates were washed 2× using TBST (use plate washer) and blocked using 200 μl of 0.5% Casein for 1.5-2 hours at room temperature with shaking.
The plates were washed 2× using TBST and the supernatant was transferred (65 μl/well) to the above pre-blocked/IL23(p19)-antibody-coated 96 well plate, and incubated at room temperature for 1.5 hours with shaking.
The plates were washed 4× using TBST (plate washer) and 100 μl/well detection antibody solution prepared from 2 μl of biotin labeled anti-IL-12 (p40/p70) antibody in 11 ml 1% BSA/PBS solution (1-5000 dilution) was added. The plates were incubated for 1 hour with shaking at Room temperature.
Again, the plates were washed 4× with TBST and 100 μl of HRP labeled Streptavidin (R&D Systems) solution (10 μl/10 ml 1% BSA solution) was added, and the plates were incubated at room temperature for another 45 minutes with shaking.
After 45 minutes, the plates were washed with TBST 4× and 100 ul/well Super Signal ELISA Pico Chemiluminescent Substrate from Pierce (3.5 ml A+3.5 ml B+3.5 ml MQ water) was added. The plates were shaken for 1-2 minutes then read on a plate reader.

Consider `O=C(Nc1cn(C(=O)N2CCOCC2)nc1-c1ccccn1)c1csc(-c2cn[nH]c2)n1` [II-131, N-(1-(morpholine-4-carbonyl)-3-(pyridin-2-yl)-1H-pyrazol-4-yl)-2-(1H-pyrazol-4-yl)thiazole-4-carboxamide formate], for which the EC50 in the test with IL-23p19 (formate) was determined as 360 nM; in the test on IL-23 (p19/p40) (Homo sapiens, 18 h) it was 9360 nM.
With `O=C(Nc1cn([C@H]2C[C@@H](OCCF)C2)nc1-c1ccccn1)c1csc(-c2cn[nH]c2)n1` [II-130, N-(1-((1s,3s)-3-(2-fluoroethoxy)cyclobutyl)-3-(pyridin-2-yl)-1H-pyrazol-4-yl)-2-(1H-pyrazol-4-yl)thiazole-4-carboxamide], the EC50 with IL-23p19 (Homo sapiens, THP-1, 18 h) is 56 nM; in the test on IL-23 (p19/p40) (Homo sapiens, 18 h), 89.8 nM.
Turning to `CCO[C@H]1C[C@@H](n2cc(NC(=O)c3csc(-c4cn[nH]c4)n3)c(-c3nnco3)n2)C1` [II-74, N-(1-((1s,3s)-3-ethoxycyclobutyl)-3-(1,3,4-oxadiazol-2-yl)-1H-pyrazol-4-yl)-2-(1H-pyrazol-4-yl)thiazole-4-carboxamide], the EC50 in the test with IL-23p19 (Homo sapiens, THP-1, 18 h) is 401 nM; with IL-23 (p19/p40) (Homo sapiens, 18 h), 405 nM.
For `O=C(Nc1cn(C2CN(C(=O)C3CC3(F)F)C2)nc1-c1ccccn1)c1ccc(-c2cn[nH]c2)o1` (stereo not drawn) [Compound I-103, N-[1-{1-(2,2-difluorocyclopropane-1-carbonyl)azetidin-3-yl}-3-(pyridine-2-yl)-1H-pyrazol-4-yl]-5-(1H-pyrazol-4-yl)furan-2-carboxamide, formate salt], the EC50 came out at 31 nM in the test on IL-23p19 (Homo sapiens, THP-1, 18 h) and 55.4 nM with IL-23 (p19/p40) (Homo sapiens, 18 h).
In the same order, the values of `O=C(Nc1cn([C@H]2CC[C@H](O)C2)nc1-c1ccccn1)c1csc(-c2cn[nH]c2)n1` (relative stereo) [II-151, N-(1-((trans)-3-hydroxycyclopentyl)-3-(pyridin-2-yl)-1H-pyrazol-4-yl)-2-(1H-pyrazol-4-yl)thiazole-4-carboxamide] are 64.9 nM and 62.2 nM.
For `CC(C)n1cc(NC(=O)c2ccc(-c3cn[nH]c3)o2)c(-c2ccccn2)n1` [Compound I-110, N-(1-isopropyl-3-(pyridin-2-yl)-1H-pyrazol-4-yl)-5-(1H-pyrazol-4-yl)furan-2-carboxamide] the same measures were 279 nM and 388 nM.
On to `O=C(Nc1cn(CCN2CCOCC2)nc1-c1ccccn1)c1ccc(-c2cn[nH]c2)o1` [Compound I-111, N-(1-(2-morpholinoethyl)-3-(pyridin-2-yl)-1H-pyrazol-4-yl)-5-(1H-pyrazol-4-yl)furan-2-carboxamide], for which the EC50 came out at 29.1 nM with IL-23p19 (Homo sapiens, THP-1, 18 h) and 26.8 nM in the test with IL-23 (p19/p40) (Homo sapiens, 18 h).
For the compound `CCO[C@H]1C[C@@H](n2cc(NC(=O)c3csc(-c4cn[nH]c4)n3)c(C(N)=O)n2)C1` [II-70, N-(3-carbamoyl-1-((1s,3s)-3-ethoxycyclobutyl)-1H-pyrazol-4-yl)-2-(1H-pyrazol-4-yl)thiazole-4-carboxamide], the EC50 in the test with IL-23p19 (Homo sapiens, THP-1, 18 h) was 1860 nM; in the test on IL-23 (p19/p40) (Homo sapiens, 18 h), 1020 nM.
For the compound `O=C(Nc1cn([C@H]2C[C@@H](OCC(F)(F)F)C2)nc1-c1ncccc1F)c1csc(-c2cn[nH]c2)n1` [II-165, N-(3-(3-fluoropyridin-2-yl)-1-((cis)-3-(2,2,2-trifluoroethoxy)cyclobutyl)-1H-pyrazol-4-yl)-2-(1H-pyrazol-4-yl)thiazole-4-carboxamide], the EC50 was found to be 44.4 nM in the test with IL-23p19 (Homo sapiens, THP-1, 18 h) and 45.4 nM with IL-23 (p19/p40) (Homo sapiens, 18 h).
For the compound `CN1CCN(CCn2cc(NC(=O)c3ccc(-c4cn[nH]c4)o3)c(-c3ccccn3)n2)CC1` [Compound I-112, N-(1-(2-(4-methylpiperazin-1-yl)ethyl)-3-(pyridin-2-yl)-1H-pyrazol-4-yl)-5-(1H-pyrazol-4-yl)furan-2-carboxamide], the EC50 was determined as 42.8 nM in the test with IL-23p19 (Homo sapiens, THP-1, 18 h) and 40.7 nM in the test with IL-23 (p19/p40) (Homo sapiens, 18 h).
For the compound `CCO[C@H]1C[C@@H](n2cc(NC(=O)c3csc(-c4cnn(COP(=O)(O)O)c4)n3)c(-c3ccccn3)n2)C1` [II-83, (4-(4-((1-((1,3-cis)-3-ethoxycyclobutyl)-3-(pyridin-2-yl)-1H-pyrazol-4-yl)carbamoyl)thiazol-2-yl)-1H-pyrazol-1-yl)methyl dihydrogen phosphate], the EC50 in the test on IL-23p19 was found to be 86.3 nM; in the test on IL-23 (p19/p40), 241 nM.
Regarding `O=C(Nc1cn([C@H]2C[C@@H](O)C2)nc1-c1ncccc1F)c1csc(-c2cn[nH]c2)n1` [II-65, N-(3-(3-fluoropyridin-2-yl)-1-((1s,3s)-3-hydroxycyclobutyl)-1H-pyrazol-4-yl)-2-(1H-pyrazol-4-yl)thiazole-4-carboxamide], the EC50 with IL-23p19 (Homo sapiens, THP-1, 18 h) came out at 37.3 nM; in the test with IL-23 (p19/p40) (Homo sapiens, 18 h), 48.9 nM.

Broadly, the EC50 is the concentration that produces a half-maximal response.
